Measurements reported in US20230265151A1, “GIP/GLP1 CO-AGONIST COMPOUNDS” (priority 2020, published 2023).
Read-outs that look alike come from different tables or passages of the source. *1 amine or outer side, *2 acyl side, *3 side chain or, on linkers, in order; H or OH if unused. Where a SMILES comes first, the peptide text is derived from it. Side-chain parts run from the residue outwards. [ ]: non-standard residue; d: D form. The star is where a group is joined. αMePhe(2-F) = C[C@](N)(Cc1ccccc1F)C(=O)O; γGlu = O=C(O)[C@H](CCC(=O)[*:2])N[*:1]; C14 diacid = O=C(O)CCCCCCCCCCCCC(=O)*; αMeY = C[C@](N)(Cc1ccc(O)cc1)C(=O)O; 4Pal = N[C@@H](Cc1ccncc1)C(=O)O; αMeL = CC(C)C[C@](C)(N)C(=O)O; Orn = NCCC[C@H](N)C(=O)O; AEEA = NCCOCCOCC(=O)O; Aib = CC(C)(N)C(=O)O

Assays:
Assay type in all cases: cell-based
[1] = biological target: T1, hGCGR (Homo sapiens, UniProt P47871); assay: Functional cAMP formation (HTRF) in HEK-293 clonal cells expressing hGCGR, 0.1% bovine casein, without or with 1.0% human serum albumin; conditions: geometric mean
T1 construct: expressed in transfected cells
Procedure, shortened: (§1)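 Cells were stimulated with peptide for 30 min at 37° C, then intracellular cAMP was measured by competitive HTRF (665/620 nm ratio) and converted to nM using a cAMP standard curve. Relative EC50 and Emax came from four-parameter logistic fits of percent maximal response against peptide concentration.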

[2] = biological target: T2, hGIPR (Homo sapiens, UniProt P48546); assay: Functional cAMP formation (HTRF) in HEK-293 clonal cells expressing hGIPR, 0.1% bovine casein, without or with 1.0% human serum albumin; conditions: for EC50: geometric mean
T2 construct: expressed in transfected cells
T2 sequence (P48546 22-466): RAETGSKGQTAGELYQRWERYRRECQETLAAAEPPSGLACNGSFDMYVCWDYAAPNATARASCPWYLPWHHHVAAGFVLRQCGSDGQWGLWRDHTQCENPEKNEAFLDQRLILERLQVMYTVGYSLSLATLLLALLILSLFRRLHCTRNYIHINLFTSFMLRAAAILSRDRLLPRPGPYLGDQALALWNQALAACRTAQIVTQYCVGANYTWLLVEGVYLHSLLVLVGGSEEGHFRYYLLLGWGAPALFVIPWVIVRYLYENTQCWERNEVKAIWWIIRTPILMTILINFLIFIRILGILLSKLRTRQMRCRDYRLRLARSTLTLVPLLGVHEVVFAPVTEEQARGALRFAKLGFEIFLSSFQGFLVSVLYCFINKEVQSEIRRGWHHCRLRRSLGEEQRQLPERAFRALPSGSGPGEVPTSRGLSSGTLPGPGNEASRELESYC
Procedure, shortened: as §1

[3] = biological target: hGLP-1R (Homo sapiens, UniProt P43220); assay: Functional cAMP formation (HTRF) in HEK-293 clonal cells expressing hGLP-1R, 0.1% bovine casein, without or with 1.0% human serum albumin; design: expressed in transfected cells; conditions: for EC50: geometric mean
Procedure, shortened: as §1

[4] = hGCGR EC50, nM (SEM, n), cAMP, incubated at 37° C., 0.1% bovine casein (no human serum albumin)
[5] = HEK293, read-out: hGIPR Emax, % ± SEM, percent of maximal response to GIP(1-42)NH2, 37° C., 0.1% bovine casein, arithmetic mean
[6] = HEK293, read-out: hGLP-1R Emax, % ± SEM, percent of maximal response to GLP-1(7-36)NH2, 37° C., 0.1% bovine casein, arithmetic mean
[7] = 0.1% bovine casein and 1.0% human serum albumin, 37° C., read-out: hGCGR EC50, nM (SEM, n)
[8] = cAMP, incubated at 37° C., 0.1% bovine casein (no human serum albumin), read-out: hGCGR EC50, nM (SEM, n)
[9] = HEK293, percent of maximal response to GIP(1-42)NH2, 37° C., 0.1% bovine casein, arithmetic mean, read-out: hGIPR Emax, % ± SEM
[10] = HEK293, 0.1% bovine casein and 1.0% human serum albumin, 37° C., percent of maximal response to GLP-1(7-36)NH2, read-out: hGLP-1R Emax, % ± SEM

Chain of hGLP-1R (P43220 24-463): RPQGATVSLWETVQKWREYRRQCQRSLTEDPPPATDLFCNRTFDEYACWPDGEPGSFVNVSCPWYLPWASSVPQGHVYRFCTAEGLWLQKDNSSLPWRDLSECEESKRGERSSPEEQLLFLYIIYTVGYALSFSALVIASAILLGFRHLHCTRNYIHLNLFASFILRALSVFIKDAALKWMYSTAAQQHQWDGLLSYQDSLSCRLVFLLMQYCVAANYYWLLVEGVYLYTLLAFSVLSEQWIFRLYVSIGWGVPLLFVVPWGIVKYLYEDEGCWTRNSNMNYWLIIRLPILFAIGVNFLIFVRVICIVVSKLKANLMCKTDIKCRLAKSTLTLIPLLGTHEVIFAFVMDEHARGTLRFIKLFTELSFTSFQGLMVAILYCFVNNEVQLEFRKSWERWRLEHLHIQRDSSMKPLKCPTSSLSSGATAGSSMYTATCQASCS
T1 sequence (P47871 26-477): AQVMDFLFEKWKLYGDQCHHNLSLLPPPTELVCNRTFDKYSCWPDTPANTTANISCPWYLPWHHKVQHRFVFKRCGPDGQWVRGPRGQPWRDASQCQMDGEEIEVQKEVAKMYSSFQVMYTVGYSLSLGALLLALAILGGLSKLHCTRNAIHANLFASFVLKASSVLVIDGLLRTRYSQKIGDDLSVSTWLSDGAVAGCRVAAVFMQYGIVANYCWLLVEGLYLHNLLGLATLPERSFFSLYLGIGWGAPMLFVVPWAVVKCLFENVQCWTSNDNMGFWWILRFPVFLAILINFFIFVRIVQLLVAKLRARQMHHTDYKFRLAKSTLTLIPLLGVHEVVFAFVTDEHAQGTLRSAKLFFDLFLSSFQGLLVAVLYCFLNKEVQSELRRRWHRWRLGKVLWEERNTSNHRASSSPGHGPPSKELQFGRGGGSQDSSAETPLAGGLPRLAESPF

Row | SMILES | EC50 [1, 4] | Emax [2, 5] | Emax [3, 6] | EC50 [1, 7] | EC50 [1, 8] | Emax [2, 9] | Emax [3, 10] | also measured
1 | CC[C@H](C)[C@H](NC(=O)[C@H](CC(C)C)NC(=O)[C@](C)(Cc1ccc(O)cc1)NC(=O)[C@H](CCCCNC(=O)COCCOCCNC(=O)COCCOCCNC(=O)CC[C@H](NC(=O)CCCCCCCCCCCCC(=O)O)C(=O)O)NC(=O)[C@@H](NC(=O)[C@](C)(Cc1ccccc1)NC(=O)[C@H](CCC(=O)O)NC(=O)C(C)(C)NC(=O)[C@H](CCC(N)=O)NC(=O)[C@H](C)NC(=O)[C@H](CCCCNC(=O)COCCOCCNC(=O)COCCOCCNC(=O)CC[C@H](NC(=O)CCCCCCCCCCCCC(=O)O)C(=O)O)NC(=O)[C@H](CCCN)NC(=O)[C@H](CC(=O)O)NC(=O)[C@H](CC(C)C)NC(=O)[C@](C)(CC(C)C)NC(=O)[C@@H](NC(=O)C(C)(C)NC(=O)[C@H](Cc1ccncc1)NC(=O)[C@H](CC(=O)O)NC(=O)[C@H](CO)NC(=O)[C@@H](NC(=O)[C@](C)(Cc1ccccc1F)NC(=O)[C@@H](NC(=O)CNC(=O)[C@H](CCC(=O)O)NC(=O)C(C)(C)NC(=O)[C@@H](N)Cc1ccc(O)cc1)[C@@H](C)O)[C@@H](C)O)[C@@H](C)CC)[C@@H](C)CC)C(=O)N[C@@H](CCC(=O)O)C(=O)NCC(=O)NCC(=O)N1CCC[C@H]1C(=O)N[C@@H](CO)C(=O)N[C@@H](CO)C(=O)NCC(=O)N[C@@H](C)C(=O)N1CCC[C@H]1C(=O)N1CCC[C@H]1C(=O)N1CCC[C@H]1C(=O)N[C@@H](CO)C(N)=O [Example 117] | > 9950 nM | 96.4% | 98.2% | – | – | – | – | –
2 | CC[C@H](C)[C@H](NC(=O)[C@H](CCCN)NC(=O)[C@H](CC(=O)O)NC(=O)[C@H](CC(C)C)NC(=O)[C@](C)(CC(C)C)NC(=O)[C@@H](NC(=O)[C@](C)(CO)NC(=O)[C@H](Cc1ccncc1)NC(=O)[C@H](CC(=O)O)NC(=O)[C@H](CO)NC(=O)[C@@H](NC(=O)[C@](C)(Cc1ccccc1F)NC(=O)[C@@H](NC(=O)CNC(=O)[C@H](CCC(=O)O)NC(=O)C(C)(C)NC(=O)[C@@H](N)Cc1ccc(O)cc1)[C@@H](C)O)[C@@H](C)O)[C@@H](C)CC)C(=O)N[C@@H](C)C(=O)N[C@@H](CCC(N)=O)C(=O)NC(C)(C)C(=O)N[C@@H](CCC(=O)O)C(=O)N[C@@H](Cc1ccccc1)C(=O)N[C@H](C(=O)N[C@@H](CCCCNC(=O)COCCOCCNC(=O)COCCOCCNC(=O)CC[C@H](NC(=O)CCCCCCCCCCCCC(=O)O)C(=O)O)C(=O)N[C@@](C)(Cc1ccc(O)cc1)C(=O)N[C@@H](CC(C)C)C(=O)N[C@H](C(=O)N[C@@H](CCCCNC(=O)COCCOCCNC(=O)COCCOCCNC(=O)CC[C@H](NC(=O)CCCCCCCCCCCCC(=O)O)C(=O)O)C(=O)NCC(=O)NCC(=O)N1CCC[C@H]1C(=O)N[C@@H](CO)C(=O)N[C@@H](CO)C(=O)NCC(=O)N[C@@H](C)C(=O)N1CCC[C@H]1C(=O)N1CCC[C@H]1C(=O)N1CCC[C@H]1C(=O)N[C@@H](CO)C(N)=O)[C@@H](C)CC)[C@@H](C)CC [Example 216] | – | – | – | > 9950 nM | > 9950 nM | 88.5% | 117% | Emax ([2]; HEK293, 0.1% bovine casein and 1.0% human serum albumin, 37° C., percent of maximal response to GIP(1-42)NH2, read-out: hGIPR Emax, % ± SEM): 63.4%; EC50 ([2]; cAMP, incubated at 37° C., 0.1% bovine casein (no human serum albumin), read-out: hGIPR EC50, nM (SEM, n)): 0.0287 nM; EC50 ([3]; 0.1% bovine casein and 1.0% human serum albumin, 37° C., read-out: hGLP-1R EC50, nM (SEM, n)): 32.3 nM; Emax ([3]; HEK293, percent of maximal response to GLP-1(7-36)NH2, 37° C., 0.1% bovine casein, arithmetic mean, read-out: hGLP-1R Emax, % ± SEM): 93.6%; EC50 ([3]; cAMP, incubated at 37° C., 0.1% bovine casein (no human serum albumin), read-out: hGLP-1R EC50, nM (SEM, n)): 0.384 nM
3 | CC[C@H](C)[C@H](NC(=O)[C@H](CCCN)NC(=O)[C@H](CC(=O)O)NC(=O)[C@H](CC(C)C)NC(=O)[C@](C)(CC(C)C)NC(=O)[C@@H](NC(=O)C(C)(C)NC(=O)[C@H](Cc1ccncc1)NC(=O)[C@H](CC(=O)O)NC(=O)[C@H](CO)NC(=O)[C@@H](NC(=O)[C@](C)(Cc1ccccc1F)NC(=O)[C@@H](NC(=O)CNC(=O)[C@H](CCC(=O)O)NC(=O)C(C)(C)NC(=O)[C@@H](N)Cc1ccc(O)cc1)[C@@H](C)O)[C@@H](C)O)[C@@H](C)CC)C(=O)N[C@@H](C)C(=O)N[C@@H](CCC(N)=O)C(=O)NC(C)(C)C(=O)N[C@@H](CCCCNC(=O)COCCOCCNC(=O)COCCOCCNC(=O)CC[C@H](NC(=O)CCCCCCCCCCCCC(=O)O)C(=O)O)C(=O)N[C@@H](Cc1ccccc1)C(=O)N[C@H](C(=O)N[C@@H](CCCCNC(=O)COCCOCCNC(=O)COCCOCCNC(=O)CC[C@H](NC(=O)CCCCCCCCCCCCC(=O)O)C(=O)O)C(=O)N[C@@](C)(Cc1ccc(O)cc1)C(=O)N[C@@H](CC(C)C)C(=O)N[C@H](C(=O)N[C@@H](CCC(=O)O)C(=O)NCC(=O)NCC(=O)N1CCC[C@H]1C(=O)N[C@@H](CO)C(=O)N[C@@H](CO)C(=O)NCC(=O)N[C@@H](C)C(=O)N1CCC[C@H]1C(=O)N1CCC[C@H]1C(=O)N1CCC[C@H]1C(=O)N[C@@H](CO)C(N)=O)[C@@H](C)CC)[C@@H](C)CC [Example 218] (H-Y[Aib]EGT[αMePhe(2-F)]TSD[4Pal][Aib]I[αMeL]LD[Orn]IAQ[Aib]K([AEEA-AEEA-γGlu-C14 diacid])FIK([AEEA-AEEA-γGlu-C14 diacid])[αMeY]LIEGGPSSGAPPPS-NH2; N-terminus assumed) | > 9950 nM | 90.2% | 92.6% | – | – | – | – | EC50 ([1]; hGCGR EC50, nM (SEM, n), 0.1% bovine casein and 1.0% human serum albumin, 37° C.): > 9950 nM; Emax ([2]; HEK293, read-out: hGIPR Emax, % ± SEM, 0.1% bovine casein and 1.0% human serum albumin, 37° C., percent of maximal response to GIP(1-42)NH2): 95.9%; EC50 ([2]; hGIPR EC50, nM (SEM, n), 0.1% bovine casein and 1.0% human serum albumin, 37° C.): 3.27 nM; EC50 ([2]; hGIPR EC50, nM (SEM, n), cAMP, incubated at 37° C., 0.1% bovine casein (no human serum albumin)): 0.0515 nM; Emax ([3]; HEK293, read-out: hGLP-1R Emax, % ± SEM, 0.1% bovine casein and 1.0% human serum albumin, 37° C., percent of maximal response to GLP-1(7-36)NH2): 121%; EC50 ([3]; hGLP-1R EC50, nM (SEM, n), 0.1% bovine casein and 1.0% human serum albumin, 37° C.): 36.6 nM; EC50 ([3]; hGLP-1R EC50, nM (SEM, n), cAMP, incubated at 37° C., 0.1% bovine casein (no human serum albumin)): 0.714 nM
4 | CC[C@H](C)[C@H](NC(=O)[C@H](CC(C)C)NC(=O)[C@](C)(Cc1ccc(O)cc1)NC(=O)[C@@H](CCC(=O)O)NC(=O)[C@@H](NC(=O)[C@H](Cc1ccc2ccccc2c1)NC(=O)[C@H](CCC(=O)O)NC(=O)C(C)(C)NC(=O)[C@H](CCC(N)=O)NC(=O)[C@H](C)NC(=O)[C@H](CCCCNC(=O)COCCOCCNC(=O)COCCOCCNC(=O)CC[C@H](NC(=O)CCCCCCCCCCCCC(=O)O)C(=O)O)NC(=O)[C@H](CCCN)NC(=O)[C@H](CC(=O)O)NC(=O)[C@H](CC(C)C)NC(=O)[C@](C)(CC(C)C)NC(=O)[C@@H](NC(=O)[C@H](CO)NC(=O)[C@H](Cc1ccncc1)NC(=O)[C@H](CC(=O)O)NC(=O)[C@H](CO)NC(=O)[C@@H](NC(=O)[C@](C)(Cc1ccccc1F)NC(=O)[C@@H](NC(=O)CNC(=O)[C@H](CCC(=O)O)NC(=O)C(C)(C)NC(=O)[C@@H](N)Cc1ccc(O)cc1)[C@@H](C)O)[C@@H](C)O)[C@@H](C)CC)[C@@H](C)CC)C(=O)N[C@@H](CCC(=O)O)C(=O)NCC(=O)NCC(=O)N[C@@H](CCCCNC(=O)COCCOCCNC(=O)COCCOCCNC(=O)CC[C@H](NC(=O)CCCCCCCCCCCCC(=O)O)C(=O)O)C(=O)N[C@@H](CO)C(=O)N[C@@H](CO)C(=O)NCC(=O)N[C@@H](C)C(=O)N1CCC[C@H]1C(=O)N1CCC[C@H]1C(=O)N1CCC[C@H]1C(=O)N[C@@H](CO)C(N)=O [Example 99] | – | – | – | > 9950 nM | > 9950 nM | 93.4 ± 1.02% | 81.1% | –
